{"source": "patent US20050100540A1", "about": "“Platelet-activating factor acetylhydrolase” (priority 1993, published 2005)", "key": {"recombinant PAF-AH": {"molecular_target": "T1, recombinant PAF-AH (Homo sapiens, UniProt Q13093)", "T1 construct": "441 amino acids; At the amino terminus, a relatively hydrophobic segment of 41 residues precedes the N-terminal amino acid (the isoleucine at position 42); made in house; host or cells: E. coli (constructs trp AH / pUC trp AH)", "T1 sequence (Q13093 42-441)": "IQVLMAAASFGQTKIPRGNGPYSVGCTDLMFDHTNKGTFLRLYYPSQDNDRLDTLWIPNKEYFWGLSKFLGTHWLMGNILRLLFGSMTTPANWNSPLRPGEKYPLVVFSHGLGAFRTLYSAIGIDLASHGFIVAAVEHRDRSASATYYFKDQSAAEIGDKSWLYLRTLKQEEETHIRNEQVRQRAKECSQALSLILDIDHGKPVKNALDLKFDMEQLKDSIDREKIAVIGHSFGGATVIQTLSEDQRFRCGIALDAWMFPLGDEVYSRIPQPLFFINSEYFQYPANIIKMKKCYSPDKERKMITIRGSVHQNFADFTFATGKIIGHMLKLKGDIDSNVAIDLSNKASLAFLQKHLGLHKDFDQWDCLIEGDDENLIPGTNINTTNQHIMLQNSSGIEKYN", "test": "Inhibition of PAF hydrolysis in standard PAF hydrolysis assay", "type": "biochemical", "settings": "0 to 125 μM; highest concentration 5-fold greater than PAF", "procedure": "The most remarkable property of the PAF acetylhydrolase is its marked specificity for substrates with a short residue at the sn-2 position of the substrate. This strict specificity distinguishes PAF acetylhydrolase from other forms of PLA2. Thus, to determine if recombinant PAF-AH degrades phospholipids with long-chain fatty acids at the sn-2 position, hydrolysis of 1-palmitoyl-2-arachidonoyl-sn-glycero-3-phosphocholine (arachidonoylPC) was assayed since this is the preferred substrate for a well-characterized form of PLA2. […] In additional experiments, arachidonoylPC was included in a standard PAF hydrolysis assay at concentrations ranging from 0 to 125 μM to determine whether it inhibited the hydrolysis of PAF by recombinant PAF-AH. There was no inhibition of PAF hydrolysis even at the highest concentration of […], which was 5-fold greater than the concentration of PAF. […] Native plasma PAF-AH has several other properties that distinguish it from other phospholipases including calcium-independence and resistance to compounds that modify sulfhydryl groups or disrupt disulfides."}, "[1]": {"molecular_target": "recombinant PAF-AH encoded by clone sAH 406-3 (Homo sapiens, UniProt Q13093)", "type": "biochemical"}}, "data": [{"molecule": "CCCCC/C=C\\C/C=C\\C/C=C\\C/C=C\\CCCC(=O)O[C@H](COC(=O)CCCCCCCCCCCCCCC)COP(=O)([O-])OCC[N+](C)(C)C", "note": "[arachidonoylPC, 1-palmitoyl-2-arachidonoyl-sn-glycero-3-phosphocholine]", "values": [{"measurement": "Inhibition of hydrolysis of PAF by recombinant PAF-AH", "setting": "recombinant PAF-AH", "value": "no inhibition"}]}, {"molecule": "O=C(O)CN(CCN(CC(=O)O)CC(=O)O)CC(=O)O", "note": "[EDTA, reference compound]", "values": [{"measurement": "Effect on PAF-AH activity of media from cells transfected with sAH 406-3", "setting": "[1]", "value": "unaffected"}]}, {"molecule": "sAH 406-3: Full length human plasma PAF-AH cDNA clone, product transiently expressed in COS 7 cells (protein) MVPPKLHVLFCLCGCLAVVYPFDWQYINPVAHMKSSAWVNKIQVLMAAASFGQTKIPRGNGPYSVGCTDLMFDHTNKGTFLRLYYPSQDNDRLDTLWIPNKEYFWGLSKFLGTHWLMGNILRLLFGSMTTPANWNSPLRPGEKYPLVVFSHGLGAFRTLYSAIGIDLASHGFIVAAVEHRDRSASATYYFKDQSAAEIGDKSWLYLRTLKQEEETHIRNEQVRQRAKECSQALSLILDIDHGKPVKNALDLKFDMEQLKDSIDREKIAVIGHSFGGATVIQTLSEDQRFRCGIALDAWMFPLGDEVYSRIPQPLFFINSEYFQYPANIIKMKKCYSPDKERKMITIRGSVHQNFADFTFATGKIIGHMLKLKGDIDSNVAIDLSNKASLAFLQKHLGLHKDFDQWDCLIEGDDENLIPGTNINTTNQHIMLQNSSGIEKYN", "values": [{"measurement": "PAF-AH activity of transfected COS cell media relative to background", "setting": "[1]", "value": 4, "unit": "fold"}]}]}
